Measured values published in patent US20180015100A1, “COMBINATION PRODUCTS FOR THE TREATMENT OF BACTERIAL INFECTIONS AND METHODS OF PRODUCING OR DOSING OF SAME” (priority 2016, published 2018).
Values after ≈ are worked out from the molar mass of the structure shown. Like-named read-outs stand apart in the source and are kept apart here.

Key:
[1] = test system: Escherichia coli isolates; test: MIC of cephalosporins alone or with clavulanate/tazobactam; type: cell-based; conditions: clavulanate 2:1, tazobactam 4 μg/mL
[2] = test system: 385 Escherichia coli and 126 Klebsiella pneumoniae isolates; test: MIC, MIC50 and MIC90 by reference broth microdilution against 511 UTI/bloodstream isolates (USA and Europe 2014-2015); type: cell-based
[3] = 365 isolates producing CTX-M enzymes

Which results are given for `Nc1nc(/C(=C/CC(=O)O)C(=O)N[C@@H]2C(=O)N3C(C(=O)O)=CCS[C@H]23)cs1` [Ceftibuten, ceftibuten]?
MIC ([1]; AECO001 (no ESBL)): 0.5 µg/mL; MIC ([1]; AECO1078 (CTX-M-15)): 32 µg/mL; MIC ([1]; AECO1147 (CTX-M-15)): 4 µg/mL; MIC ([1]; AECO1157 (CTX-M-15, TEM-OSBL)): 8 µg/mL; MIC ([1]; AECO1159 (CTX-M-15)): 16 µg/mL; MIC ([1]; AECO1169 (CTX-M-1, TEM-OSBL)): 1 µg/mL; MIC ([1]; AECO1172 (CTX-M-14)): 2 µg/mL; % of the isolates inhibited at ≦1 μg/mL [2, 3]: 19.7%; % of the isolates inhibited at ≦8 μg/mL [2, 3]: 64.4%; MIC50 ([2]; 365 isolates producing CTX-M enzymes (no transferrable AmpC/carbapenemase)): 8 µg/mL (≈ 19.5 µM); MIC90 ([2]; 365 isolates producing CTX-M enzymes (no transferrable AmpC/carbapenemase), read-out: MIC90): 32 µg/mL (≈ 78 µM); MIC90 ([2]; 379 E. coli or K. pneumoniae isolates genotyped for CTX-M, TEM, or SHV ESBLs, 2:1 ratio): ~32 µg/mL; MIC50 ([2]; 511 isolates): 8 µg/mL (≈ 19.5 µM); MIC90 ([2]; 511 isolates): >32 µg/mL; MIC90 ([2]; 511 isolates, read-out: MIC90): > 32 µg/mL; MIC50 ([2]; All CTX-M-producing K pneumoniae (71)): 8 µg/mL (≈ 19.5 µM); MIC90 ([2]; All CTX-M-producing K pneumoniae (71), read-out: MIC90): > 32 µg/mL; MIC50 ([2]; All CTX-M-producing isolates (365)): 8 µg/mL (≈ 19.5 µM); MIC90 ([2]; All CTX-M-producing isolates (365), read-out: MIC90): 32 µg/mL (≈ 78 µM); MIC50 ([2]; Enterobacteriaceae (511)): 8 µg/mL (≈ 19.5 µM); MIC90 ([2]; Enterobacteriaceae (511), read-out: MIC90): > 32 µg/mL; MIC50 ([2]; Escherichia coli, All CTX-M-producing E. coli (294)): 8 µg/mL (≈ 19.5 µM); MIC90 ([2]; Escherichia coli, All CTX-M-producing E. coli (294), read-out: MIC90): 32 µg/mL (≈ 78 µM); MIC50 ([2]; Escherichia coli, E. coli (385)): 8 µg/mL (≈ 19.5 µM); MIC90 ([2]; Escherichia coli, E. coli (385), read-out: MIC90): > 32 µg/mL; MIC50 ([2]; Isolates producing CTX-M Group 1 (276)): 8 µg/mL (≈ 19.5 µM); MIC90 ([2]; Isolates producing CTX-M Group 1 (276), read-out: MIC90): > 32 µg/mL; MIC50 ([2]; Isolates producing CTX-M Group 9 (92)): 1 µg/mL (≈ 2.44 µM); MIC90 ([2]; Isolates producing CTX-M Group 9 (92), read-out: MIC90): 16 µg/mL (≈ 39 µM); MIC50 ([2]; Isolates producing SHV ESBL (18)): 1 µg/mL (≈ 2.44 µM); MIC90 ([2]; Isolates producing SHV ESBL (18), read-out: MIC90): 16 µg/mL (≈ 39 µM); MIC50 ([2]; Isolates producing transferable AmpC (57)): > 32 µg/mL; MIC90 ([2]; Isolates producing transferable AmpC (57), read-out: MIC90): > 32 µg/mL; MIC50 ([2]; K pneumoniae (126)): 8 µg/mL (≈ 19.5 µM); MIC90 ([2]; K pneumoniae (126), read-out: MIC90): > 32 µg/mL; MIC50 ([2]; KPC-producers (25)): 8 µg/mL (≈ 19.5 µM); MIC90 ([2]; KPC-producers (25), read-out: MIC90): 32 µg/mL (≈ 78 µM); cumulative % of isolates at MIC ([2]; MIC 0.015 μg/mL, All CTX-M-producing K pneumoniae (71)): (0.0) %; cumulative % of isolates at MIC ([2]; MIC 0.015 μg/mL, All CTX-M-producing isolates (365)): (0.0) %; cumulative % of isolates at MIC ([2]; MIC 0.015 μg/mL, Isolates producing CTX-M Group 9 (92)): (0.0) %; cumulative % of isolates at MIC ([2]; MIC 0.015 μg/mL, Isolates producing SHV ESBL (18)): (0.0) %; cumulative % of isolates at MIC ([2]; MIC 0.015 μg/mL, K pneumoniae (126)): (0.0) %; cumulative % of isolates at MIC ([2]; MIC 0.03 μg/mL, All CTX-M-producing K pneumoniae (71)): (1.4) %; cumulative % of isolates at MIC ([2]; MIC 0.03 μg/mL, All CTX-M-producing isolates (365)): (0.3) %; cumulative % of isolates at MIC ([2]; MIC 0.03 μg/mL, E. coli (385)): (0.0) %; cumulative % of isolates at MIC ([2]; MIC 0.03 μg/mL, Isolates producing CTX-M Group 9 (92)): (1.1) %; cumulative % of isolates at MIC ([2]; MIC 0.03 μg/mL, Isolates producing SHV ESBL (18)): (11.1) %; cumulative % of isolates at MIC ([2]; MIC 0.03 μg/mL, K pneumoniae (126)): (4.0) %; cumulative % of isolates at MIC ([2]; MIC 0.06 μg/mL, All CTX-M-producing E. coli (294)): (0.0) %; cumulative % of isolates at MIC ([2]; MIC 0.06 μg/mL, All CTX-M-producing K pneumoniae (71)): (2.8) %; cumulative % of isolates at MIC ([2]; MIC 0.06 μg/mL, All CTX-M-producing isolates (365)): (0.5) %; cumulative % of isolates at MIC ([2]; MIC 0.06 μg/mL, E. coli (385)): (0.3) %; cumulative % of isolates at MIC ([2]; MIC 0.06 μg/mL, Isolates producing CTX-M Group 9 (92)): (2.2) %; cumulative % of isolates at MIC ([2]; MIC 0.06 μg/mL, Isolates producing SHV ESBL (18)): (16.7) %; cumulative % of isolates at MIC ([2]; MIC 0.06 μg/mL, K pneumoniae (126)): (6.3) %; cumulative % of isolates at MIC ([2]; MIC 0.5 μg/mL, All CTX-M-producing E. coli (294)): (10.5) %; cumulative % of isolates at MIC ([2]; MIC 0.5 μg/mL, All CTX-M-producing K pneumoniae (71)): (7.0) %; cumulative % of isolates at MIC ([2]; MIC 0.5 μg/mL, All CTX-M-producing isolates (365)): (9.9) %; cumulative % of isolates at MIC ([2]; MIC 0.5 μg/mL, E. coli (385)): (10.4) %; cumulative % of isolates at MIC ([2]; MIC 0.5 μg/mL, Enterobacteriaceae (511)): (10.8) %; cumulative % of isolates at MIC ([2]; MIC 0.5 μg/mL, Isolates producing CTX-M Group 1 (276)): (3.6) %; cumulative % of isolates at MIC ([2]; MIC 0.5 μg/mL, Isolates producing CTX-M Group 9 (92)): (28.3) %; cumulative % of isolates at MIC ([2]; MIC 0.5 μg/mL, Isolates producing SHV ESBL (18)): (38.9) %; cumulative % of isolates at MIC ([2]; MIC 0.5 μg/mL, K pneumoniae (126)): (11.9) %; cumulative % of isolates at MIC ([2]; MIC 1 μg/mL, All CTX-M-producing E. coli (294)): (22.1) %
